According to the supplement of paper PMC10307832:

Assays:
Assay in all cases: relative viability (nuclei count vs DMSO), 5 days (fraction); higher = more cells survive
IPA-3 + Alpelisib = compound: C1=CC=C2C(=C1)C=CC(=C2SSC3=C(C=CC4=CC=CC=C43)O)O [IPA-3] + Cc1nc(NC(=O)N2CCC[C@H]2C(N)=O)sc1-c1ccnc(C(C)(C)C(F)(F)F)c1 [Alpelisib] (partner 2 µM)
How it was run: (§1)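 After 5 days of treatment, lung cancer cells in 1536-well plates were fixed and stained in a single step (final 0.05% Triton X-100, 1% formaldehyde, 1 ug/ml Hoechst) and their nuclei counted on 4× images. Treatment had been applied by pin tool the day after seeding as one drug alone or as a fixed anchor-drug dose with five library-drug doses (not always all listed) in √10 steps. Relative viability is the nuclei count of treated wells divided by that of vehicle wells, and values are medians of duplicate plates.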

Doramapimod + Tozasertib = compound: Cc1ccc(-n2nc(C(C)(C)C)cc2NC(=O)Nc2ccc(OCCN3CCOCC3)c3ccccc23)cc1 [Doramapimod] + Cc1cc(Nc2cc(N3CCN(C)CC3)nc(Sc3ccc(NC(=O)C4CC4)cc3)n2)n[nH]1 [Tozasertib] (partner 0.1 µM)
How it was run: as §1

RAF265 + Navitoclax = compound: Cn1c(Nc2ccc(C(F)(F)F)cc2)nc2cc(Oc3ccnc(-c4ncc(C(F)(F)F)[nH]4)c3)ccc21 [RAF265] + CC1(C)CCC(c2ccc(Cl)cc2)=C(CN2CCN(c3ccc(C(=O)NS(=O)(=O)c4ccc(N[C@H](CCN5CCOCC5)CSc5ccccc5)c(S(=O)(=O)C(F)(F)F)c4)cc3)CC2)C1 [Navitoclax] (partner 0.5 µM)
How it was run: as §1

RAF265 + AZD7762 = compound: Cn1c(Nc2ccc(C(F)(F)F)cc2)nc2cc(Oc3ccnc(-c4ncc(C(F)(F)F)[nH]4)c3)ccc21 [RAF265] + NC(=O)Nc1cc(-c2cccc(F)c2)sc1C(=O)N[C@H]1CCCNC1 [AZD7762] (partner 0.2 µM)
How it was run: as §1

| Cell Line | relative viability (IPA-3 + Alpelisib; first compound 0.2 µM) | relative viability (IPA-3 + Alpelisib; first compound 0.6325 µM) | relative viability (IPA-3 + Alpelisib; first compound 2 µM) | relative viability (IPA-3 + Alpelisib; first compound 6.325 µM) | relative viability (IPA-3 + Alpelisib; first compound 20 µM) | relative viability (Doramapimod + Tozasertib; first compound 0.02 µM) | relative viability (Doramapimod + Tozasertib; first compound 0.06325 µM) | relative viability (Doramapimod + Tozasertib; first compound 0.2 µM) | relative viability (Doramapimod + Tozasertib; first compound 0.6325 µM) | relative viability (Doramapimod + Tozasertib; first compound 2 µM) | relative viability (RAF265 + Navitoclax; first compound 0.01 µM) | relative viability (RAF265 + Navitoclax; first compound 0.03162 µM) | relative viability (RAF265 + Navitoclax; first compound 0.1 µM) | relative viability (RAF265 + Navitoclax; first compound 0.3162 µM) | relative viability (RAF265 + Navitoclax; first compound 1 µM) | relative viability (RAF265 + AZD7762; first compound 0.01 µM) | relative viability (RAF265 + AZD7762; first compound 0.03162 µM) | relative viability (RAF265 + AZD7762; first compound 0.1 µM) | relative viability (RAF265 + AZD7762; first compound 0.3162 µM) | relative viability (RAF265 + AZD7762; first compound 1 µM) |
| --- | --- | --- | --- | --- | --- | --- | --- | --- | --- | --- | --- | --- | --- | --- | --- | --- | --- | --- | --- | --- |
| HOP-62 | 1.08 | 0.926 | 0.952 | 0.945 | 0.93 | 0.386 | 0.356 | 0.382 | 0.424 | 0.28 | 0.942 | 0.963 | 0.921 | 0.995 | 0.951 | 0.572 | 0.553 | 0.462 | 0.482 | 0.422 |
| HCC-366 | 0.499 | 0.425 | 0.432 | 0.477 | 0.333 | 0.117 | 0.129 | 0.15 | 0.0878 | 0.0672 | 1.09 | 1.15 | 1.13 | 1.09 | 0.776 | 0.25 | 0.253 | 0.396 | 0.321 | 0.157 |
| NCI-H2347 | 1.12 | 0.941 | 0.928 | 1.08 | 1.01 | 0.552 |  | 0.565 | 0.587 | 0.555 | 1.03 | 0.786 | 0.864 | 0.456 | 0.467 | 0.74 | 0.7 | 0.832 | 0.46 | 0.22 |
| LXF-289 | 1.08 | 0.978 | 1.03 | 1.02 | 1.13 | 0.207 | 0.177 | 0.177 | 0.19 | 0.203 | 0.919 | 0.905 | 0.935 | 0.818 | 0.807 | 1.12 | 1.26 | 1.24 | 0.849 | 0.871 |
| NCI-H1793 | 0.786 | 0.677 | 0.757 | 0.739 | 0.785 | 0.27 | 0.319 | 0.319 | 0.352 | 0.26 | 0.351 | 0.379 | 0.316 | 0.336 | 0.21 | 0.413 | 0.572 | 0.332 | 0.197 | 0.132 |
| LU99A | 0.551 | 0.451 | 0.512 | 0.531 | 0.528 | 0.307 | 0.248 | 0.294 | 0.252 | 0.264 | 0.703 | 0.688 | 0.613 | 0.514 | 0.325 | 0.419 | 0.344 | 0.404 | 0.325 | 0.235 |
| PC-14 | 1.15 | 0.885 | 1 | 0.88 | 1.1 | 0.582 | 0.602 | 0.588 | 0.647 | 0.525 | 0.955 | 1.03 | 1.03 | 0.985 | 0.854 | 0.424 | 0.451 | 0.369 |  | 0.378 |
| NCI-H2085 | 1.07 | 0.919 | 0.989 | 0.949 | 0.984 | 0.882 | 0.913 | 0.852 | 0.84 | 0.796 | 1.17 | 1.12 | 1.16 | 1.27 | 1.09 | 1.06 | 0.879 | 1.05 | 1.1 | 0.857 |
| NCI-H2170 | 0.871 | 0.781 | 0.894 | 0.727 | 0.806 | 0.717 | 0.611 | 0.824 | 0.636 | 0.6 | 0.586 | 0.434 | 0.462 | 0.3 | 0.383 | 0.876 | 0.72 | 0.761 | 0.363 | 0.615 |
| HCC-78 | 0.327 | 0.406 | 0.244 | 0.347 | 0.51 | 0.404 | 0.537 | 0.291 | 0.471 | 0.402 | 0.898 | 0.901 | 0.912 | 0.726 | 0.731 | 0.634 | 0.863 | 0.731 | 0.269 | 0.567 |
| NCI-H1395 | 1.06 | 1.29 | 1.04 | 1.26 | 1.01 | 0.765 | 0.778 | 0.783 | 0.761 | 0.717 | 1.46 | 1.16 | 1.15 | 1.28 | 0.867 | 0.403 | 0.382 | 0.422 | 0.419 | 0.393 |
| NCI-H2126 | 0.762 | 0.73 | 0.699 | 0.727 | 0.928 | 0.843 | 0.835 | 0.812 | 0.926 | 0.777 | 0.813 | 0.826 | 0.866 | 0.687 | 0.616 | 1.04 | 0.962 | 0.968 | 0.935 | 0.848 |
| H3255 | 0.798 | 0.774 | 0.48 | 0.657 | 0.863 | 0.688 | 0.65 | 0.669 | 0.602 | 0.452 | 0.563 | 0.47 | 0.695 | 0.0727 | 0.23 | 0.931 | 1.01 | 0.877 |  | 0.623 |
| HCC-15 | 1.01 | 0.831 | 0.73 | 0.876 | 0.928 | 0.401 | 0.343 | 0.414 |  | 0.309 | 0.734 | 0.709 | 0.7 | 0.505 | 0.464 | 1.31 | 1.17 | 1.12 | 1.27 | 1.18 |
| HCC-44 | 0.788 | 0.715 | 0.843 | 0.683 | 0.775 | 0.961 | 1.01 | 1.19 | 0.913 | 0.84 | 0.879 | 0.884 | 1.03 | 1.03 | 0.916 | 1 | 0.985 | 1.03 | 1 | 0.955 |
| EMC-BAC-2 | 0.813 | 0.744 | 0.785 | 0.694 | 0.822 | 0.284 | 0.286 | 0.272 | 0.304 | 0.238 | 1.11 | 1.06 | 1.05 | 0.941 | 0.612 | 1.09 | 1.03 | 0.675 | 0.724 | 0.486 |
